Data: ChEMBL document CHEMBL1201862, “PubChem BioAssay data set” (2004)
Active and inactive are the calls of the source.

Columns and labels:
[1] = target: Solute carrier family 12 member 2/member 5 (Homo sapiens, UniProt P55011+Q9H2X9); assay: KCC2 and NKCC1 inhibition by rubidium flux, cell-based, NKCC1 counter-screen (AID 1734); format: functional, HEK293
[2] = target: T1, Tyrosine-protein phosphatase non-receptor type 7 (Homo sapiens, UniProt P35236); assay: inhibitors of human HePTP phosphatase, […], biochemical, absorbance, leukemia target (AID 521); format: functional
T1 sequence (P35236 whole entry): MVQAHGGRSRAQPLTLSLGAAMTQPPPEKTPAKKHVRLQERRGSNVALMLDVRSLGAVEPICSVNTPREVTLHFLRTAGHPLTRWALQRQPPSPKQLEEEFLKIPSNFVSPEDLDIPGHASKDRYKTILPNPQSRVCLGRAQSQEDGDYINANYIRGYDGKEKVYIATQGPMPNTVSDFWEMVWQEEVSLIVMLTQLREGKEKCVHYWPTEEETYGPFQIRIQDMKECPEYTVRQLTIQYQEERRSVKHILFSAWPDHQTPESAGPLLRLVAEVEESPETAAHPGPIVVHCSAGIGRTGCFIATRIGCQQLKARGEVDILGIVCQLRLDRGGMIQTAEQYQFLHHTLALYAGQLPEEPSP

[3] = THP-1 cell cytotoxicity, dose response, cytotoxicity control for non-replicating M. tuberculosis project (AID 489025); format: functional
[4] = microbe, parasite or virus in culture; format: functional; conditions: Mycobacterium tuberculosis
[5] = cells; format: functional
[6] = M. tuberculosis growth inhibition, HTS (AID 449762); format: functional
[7] = target: T2, NADPH oxidase 1 (Homo sapiens, UniProt Q9Y5S8); assay: Late-stage luminescence-based cell-based dose response assay to identify inhibitors of NADPH oxidase 1 (NOX1): Synthesized analogs 3.; format: functional
T2 sequence (Q9Y5S8 whole entry): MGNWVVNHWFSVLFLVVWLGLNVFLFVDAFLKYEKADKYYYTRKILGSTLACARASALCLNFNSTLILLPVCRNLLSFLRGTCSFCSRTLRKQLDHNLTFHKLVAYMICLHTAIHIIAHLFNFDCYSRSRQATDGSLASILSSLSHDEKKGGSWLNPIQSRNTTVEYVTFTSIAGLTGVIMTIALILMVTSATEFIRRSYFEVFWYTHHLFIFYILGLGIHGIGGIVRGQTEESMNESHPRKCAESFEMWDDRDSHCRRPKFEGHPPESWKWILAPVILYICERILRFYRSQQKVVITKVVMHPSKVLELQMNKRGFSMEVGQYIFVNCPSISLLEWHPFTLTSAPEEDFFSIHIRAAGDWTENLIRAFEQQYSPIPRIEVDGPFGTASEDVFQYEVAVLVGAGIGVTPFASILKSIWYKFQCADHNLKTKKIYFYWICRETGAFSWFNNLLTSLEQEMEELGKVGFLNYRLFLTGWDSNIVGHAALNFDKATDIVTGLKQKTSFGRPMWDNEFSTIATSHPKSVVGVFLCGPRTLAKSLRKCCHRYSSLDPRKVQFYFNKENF

[8] = cells; format: functional, cell-based
[9] = system: BJ; assay: cells; format: functional, cell-based, Homo sapiens; conditions: Homo sapiens, BJ
[10] = target: T3, High affinity choline transporter 1 (Homo sapiens, UniProt Q9GZV3); assay: CHT inhibitors, dose response, cell-based, 10-point CRC, membrane potential dye (AID 588401); format: functional;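 also: membrane potential dye fluorescence of choline-evoked depolarization via CHT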
T3 sequence (Q9GZV3 whole entry): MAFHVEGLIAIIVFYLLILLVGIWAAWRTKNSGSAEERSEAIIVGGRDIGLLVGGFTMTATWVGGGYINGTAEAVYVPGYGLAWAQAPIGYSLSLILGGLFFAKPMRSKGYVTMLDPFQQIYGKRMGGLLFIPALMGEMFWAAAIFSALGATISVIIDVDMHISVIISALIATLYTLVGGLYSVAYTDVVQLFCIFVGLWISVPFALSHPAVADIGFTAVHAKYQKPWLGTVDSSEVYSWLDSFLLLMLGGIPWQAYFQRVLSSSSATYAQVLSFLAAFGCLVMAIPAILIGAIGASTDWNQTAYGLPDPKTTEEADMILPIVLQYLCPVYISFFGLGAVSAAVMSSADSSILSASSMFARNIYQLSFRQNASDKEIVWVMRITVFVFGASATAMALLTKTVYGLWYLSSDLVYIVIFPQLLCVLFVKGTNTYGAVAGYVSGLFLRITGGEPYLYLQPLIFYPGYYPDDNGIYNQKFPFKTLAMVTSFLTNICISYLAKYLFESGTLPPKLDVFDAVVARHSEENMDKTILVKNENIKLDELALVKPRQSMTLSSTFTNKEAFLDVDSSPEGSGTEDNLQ

[11] = inhibitors of firefly luciferase expression or activity, dose response, H4 neuroglioma cells, luminescence (AID 1990); format: functional, cell-based
[12] = system: BJ; assay: cytotoxicity toward BJ-TERT-LT-ST fibroblasts, dose response, cell-based, RAS-independent, luminescence (AID 1935); format: functional, Homo sapiens; conditions: Homo sapiens, BJ;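 also: BJ fibroblasts immortalized with TERT plus LT and ST oncogenes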
[13] = cytotoxicity in HEK-293T cells, dose response, cytotoxicity control for BCR NF-kB inhibitor project, luminescence, B-cell screen hits (AID 489021); format: functional, cell-based;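 also: HEK-293T cells carrying an NF-kB luciferase reporter; cells exposed to compound for about 14 hours before viability readout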
[14] = target: Paired box protein Pax-8 (Homo sapiens, UniProt Q06710); assay: inhibitors of PAX8-driven TPO luciferase reporter, dose response, RMG-I cells, cherry-pick (AID 687027); format: functional, cell-based;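 also: luciferase reporter driven by Pax8 target thyroperoxidase promoter measured by SteadyGlo luminescence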
[15] = Luminescence Cell-Based Dose Response HTS to Identify Inhibitors of 5'UTR Stem-Loop Driven Prion Protein mRNA Translation in H4 Neuroglioblastoma Cells. [Related pubchem assays: 1827 (Project Summary), 1813 (Primary HTS)]; format: functional
[16] = luciferase reporter signal reduction – luminescence, H4-C neuroglioblastoma cells, dose response (AID 2458); format: functional, cell-based;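 also: H4 neuroglioblastoma cells stably carrying a luciferase reporter gene fusion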
[17] = system: INS1; assay: beta cell apoptosis inhibitors, cytokine rescue, dose response, luminescence, retest (AID 449756); format: functional, cell-based; conditions: Rattus norvegicus;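 also: cell death triggered by IL-1 beta plus TNF-alpha plus IFN-gamma mixture; protective hits raise ATP signal compared with cytokine alone wells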
[18] = target: Major prion protein (Homo sapiens, UniProt P04156); format: functional, cell-based
[19] = target: Galanin receptor type 2 (Homo sapiens, UniProt O43603); assay: Dose Response cell-based high-throughput screening assay to identify antagonists of galanin receptor 2 (GALR2). [Related pubchem assays: 828, 866 ]; format: functional
[20] = inhibitors of SNCA 5'UTR-driven reporter translation, confirmation, H4 neuroglioma cells, luminescence (AID 1988); format: functional, cell-based
[21] = inhibitors of SNCA 5'UTR-driven translation, confirmation, luminescence, H4 neuroglioblastoma cells, dose confirmation (AID 2454); format: functional, cell-based;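 also: H4 neuroglioblastoma cells carrying an alpha-synuclein 5'UTR luciferase reporter; potency for inhibition of the luciferase signal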
[22] = target: Photoreceptor-specific nuclear receptor (Homo sapiens, UniProt Q9Y5X4); format: functional, cell-based;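 also: CHO-S cells with Gal4-NCOR and VP16-NR2E3 two-hybrid luciferase reporter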
[23] = Luminescence-based dose response cell-based high throughput screening assay for cytotoxic compounds using the IEC-6 intestinal epithelial cell line. [Related pubchem assays: 1858 (Summary AID.), 1825 (Counterscreen.), 1907 (Confirmation screen.)]; format: functional
[24] = cells
[25] = target: T3, High affinity choline transporter 1; assay: CHT inhibitors, dose response, cell-based, 5-point CRC, membrane potential dye (AID 504840); format: functional
[26] = target: Aryl hydrocarbon receptor (Homo sapiens, UniProt P35869); assay: Luminescence-based cell-based high throughput dose response assay for activators of the Aryl Hydrocarbon Receptor (AHR). [Related pubchem assays: 2796 (Primary screen (AHR activators in singlicate)), 2845 (Confirmation screen (AHR activators in triplicate)), 434939 (Counterscreen (PXR activators in triplicate)), 2804 (Summary (AHR activators))]; format: ADME
[27] = target: 14-3-3 protein gamma (Homo sapiens, UniProt P61981); assay: modulators of 14-3-3 gamma client binding – dose response (AID 711); format: functional
[28] = target: Cytochrome P450 2D6 (Homo sapiens, UniProt P10635); assay: qHTS Assay for Inhibitors and Substrates of Cytochrome P450 2D6. [Related pubchem assays: 410 ]; format: ADME; conditions: read-out: Potency
[29] = target: Cytochrome P450 2C19 (Homo sapiens, UniProt P33261); assay: qHTS Assay for Inhibitors and Substrates of Cytochrome P450 2C19. [Related pubchem assays: 410 ]; format: ADME; conditions: read-out: Potency
[30] = target: Cytochrome P450 3A4 (Homo sapiens, UniProt P08684); conditions: Potency;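 also: confirmatory qHTS run detecting inhibitors and substrates of CYP3A4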
[31] = target: Cytochrome P450 2C9 (Homo sapiens, UniProt P11712); conditions: Potency
[32] = target: Voltage-gated inwardly rectifying potassium channel KCNH2 (Homo sapiens, UniProt Q12809); assay: hERG protection from proarrhythmic block, potency, dose response, cell-based, thallium flux (AID 2121); format: ADME

Cc1nc(CC(=O)Nc2nc(-c3ccccc3)cs2)cs1
IC50 [1]: 79 µM (active)

Cc1cc(C)cc(OCCCCCNCCO)c1
IC50 [2]: > 100 µM (not active)

CCCCNC(=O)Nc1nnc(-c2ccc(OCC)cc2)o1
CC50 [3]: > 40 µM (active)
CC50 [4]: > 40 µM (active)
IC50 [5]: 26.2 µM (active)
IC50 [6]: > 100 µM (active)

CN1c2ccccc2Sc2cc(C(=O)c3ccc(N=[N+]=[N-])cc3)ccc21
IC50 [7]: > 20 µM (not active)

CC1CCC/C=C/C2CC(O)CC2C(O)/C=C/C(=O)O1 (configuration not stated)
EC50 [8]: 0.078 µM (active)
EC50 [9]: > 150 µM (inconclusive)
IC50 [10]: 3.03 µM (active)
EC50 [11]: < 0.1 µM (active)
EC50 [12]: < 0.12 µM (active)
IC50 [13]: > 80 µM (inactive)
AC50 [14]: < 0.26 µM (active)
EC50 [15]: < 0.1 µM (active)
EC50 [16]: 0.078 µM (active)
AC50 [17]: 0.74 µM (active)
IC50 [18]: 3.43 µM (active)
IC50 [19]: > 42 µM (not active)
EC50 [20]: < 0.1 µM (active)
EC50 [21]: 0.071 µM (active)
IC50 [22]: 0.714 µM (active)
IC50 [23]: 0.353 µM (active)
IC50 [24]: > 138 µM (inactive)
IC50 [25]: 1.87 µM (active)

Cc1nccc(-c2ccc(-n3cnc4ccccc43)cc2)n1
EC50 [26]: > 1.13 µM (active)

CCOC(=O)N1CCC(NC(=O)CSCc2nc(-c3ccc(OC)c(OC)c3)oc2C)CC1
IC50 [27]: > 50 µM (not active)

O=c1c(O)c(-c2ccc(O)c(O)c2)oc2ccccc12
AC50 [28]: 31.6 µM (inconclusive)
AC50 [29]: 25.1 µM (inconclusive)
AC50 [30]: 31.6 µM (inconclusive)
AC50 [31]: 31.6 µM (inconclusive)

COc1ccc(C(=O)CC(=O)C(=O)Nc2ccc(Cl)cc2)cc1
EC50 [32]: 1.74 µM (active)
